Data on two molecules can be found in EP0534511A1, “HIV protease inhibitors useful for the treatment of aids” (MERCK & CO. INC., priority 1991, dated 1993).

The assay deals with T1, HIV protease (Human immunodeficiency virus type 1 group M subtype B, UniProt P04585).
T1 construct: the protease expressed in Eschericia coli; made in house; host or cells: Escherichia coli
In words: Assay for Inhibition of Microbial Expressed Viral Protease. In kind it is biochemical. Particulars: protease expressed in Eschericia coli; peptide substrate Val-Ser-Gln-Asn-(betanapthyl)Ala-Pro-Ile-Val 0.5 mg/mL; 50 mM Na acetate, pH 5.5, 30°C, 1 hour; HPLC; read-out: IC₅₀. Here is the method: Assay for Inhibition of Microbial Expressed Viral Protease
Inhibition studies of the reaction of the protease expressed in Eschericia coli with a peptide substrate [Val-Ser-Gln-Asn-(betanapthyl)Ala-Pro-Ile-Val, 0.5 mg/mL at the time the reaction is initiated] were in 50 mM Na acetate, pH 5.5, at 30°C for 1 hour. Various concentrations of inhibitor in 1.0 ul DMSO were added to 25 ul of the peptide solution in water. The reaction is initiated by the addition of 15 ul of 0.33 nM protease (0.11 ng) in a solution of 0.133 M Na acetate pH 5.5 and 0.26% bovine serum albumin. The reaction was quenched with 160 ul of 5% phosphoric acid. Products of the reaction were separated by HPLC (VYDAC wide pore 5 cm C-18 reverse phase, acetonitrile gradient, 0.1% phosphoric acid). The extent of inhibition of the reaction was determined from the peak heights of the products.

Regarding `CC(C)[C@H](C[C@H](O)[C@H](CC1CCCCC1)NC(=O)O[C@H]1CCOC1)C(=O)N[C@H]1c2ccccc2C[C@H]1O` [A, N-[(2R)-hydroxy-1(S)-indanyl]-5(S)-(3(S)-tetrahydrofuranyloxycarbonylamino)-4(S)-hydroxy-6-cyclohexyl-2(R)-isopropyl hexanamide], the IC50 is 370 pM. For the molecule `O=C(N[C@@H](CC1CCCCC1)[C@@H](O)C[C@@H](Cc1ccccc1)C(=O)N[C@H]1c2ccccc2C[C@H]1O)O[C@H]1CCOC1` [C, N-[(2R)-hydroxy-1(S)-indanyl]-5(S)-(3(S)-tetrahydrofuranyloxycarbonylamino)-4(S)-hydroxy-6-cyclohexyl-2(R)-phenylmethyl hexamamide], the IC50 amounted to 40 pM.
